From PubChem BioAssay (NCI) come the findings set out here.

Among the test systems are A498 renal; HOP-92 NSCLC; NCI/ADR-RES ovarian; RPMI-8226 leukemia; HCT-116 colon; NCI-H522 lung; NCI-H226 lung; LOX IMVI melanoma; UACC-62 melanoma; HL-60(TB) leukemia.
Common to all, as to test: DTP human tumour cell line panel, 48 h

Molecules are shown by their SMILES.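 Each compound was tested at five concentrations against cells in 96-well plates for 48 hours. GI50 is the concentration that inhibits growth by half. TGI marks complete inhibition of growth.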

One may read the GI50 as the concentration giving 50% growth inhibition. As usually defined, the TGI is the concentration giving total growth inhibition. A higher TGI goes with less potent growth arrest. For `CC(C)C[C@H](NC(=O)[C@@H](Cc1ccccc1)n1ccc(Nc2ccccc2)cc1=O)B(O)O`, the GI50 with A498 renal is 0.0262 µM; in the assay on HOP-92 NSCLC, 0.386 µM; in the assay on NCI/ADR-RES ovarian, 13.4 µM; in the assay on RPMI-8226 leukemia, 0.154 µM; in the assay with HCT-116 colon it was 0.257 µM; with NCI-H522 lung, 0.242 µM. For the same compound, the GI50 in the assay with NCI-H226 lung is 0.164 µM; in the assay on LOX IMVI melanoma, 0.151 µM; in the assay with UACC-62 melanoma, 0.333 µM. Moreover, the TGI in the assay on A498 renal was 0.36 µM; in the assay on HOP-92 NSCLC, 2.45 µM; in the assay on NCI/ADR-RES ovarian it was > 100 µM; in the assay with RPMI-8226 leukemia, 3.87 µM; with HCT-116 colon it was 1.23 µM; in the assay with NCI-H522 lung, 0.821 µM. Further, the TGI with NCI-H226 lung is 0.348 µM; in the assay on LOX IMVI melanoma it was 0.409 µM; in the assay with UACC-62 melanoma it was 1.41 µM.

For `OC1CC(O)O[C@H](c2ccccc2)C1` (stereo not given in full), the TGI in the assay on A498 renal, in the assay on HOP-92 NSCLC, with RPMI-8226 leukemia, in the assay with HCT-116 colon, in the assay on NCI-H226 lung and in the assay on LOX IMVI melanoma was > 100 µM throughout. The TGI in the assay on UACC-62 melanoma and with HL-60(TB) leukemia was > 100 µM each time.

For `CC(=O)OCc1nnn2c1C(OC(C)=O)CC2` (stereo not given), the TGI in the assay with HOP-92 NSCLC, with RPMI-8226 leukemia, with HCT-116 colon, with NCI-H522 lung, with NCI-H226 lung and in the assay on UACC-62 melanoma was > 100 µM throughout.

For `NNC(=O)/C(NC(=O)c1ccccc1)=C(\N)c1cccc([N+](=O)[O-])c1`, the TGI with A498 renal, in the assay with HOP-92 NSCLC, in the assay with RPMI-8226 leukemia, in the assay on HCT-116 colon, in the assay on NCI-H522 lung and in the assay on NCI-H226 lung was > 100 µM throughout. The TGI with LOX IMVI melanoma, with UACC-62 melanoma and in the assay on HL-60(TB) leukemia was > 100 µM each time.

Consider `CC(=O)[O-].CC(=O)[O-].O=C([CH-]C(=O)c1ccccc1)c1ccccc1.[Nd+3].[OH3+]`, for which the GI50 is 43.1 µM in the assay with A498 renal; 20.1 µM with HOP-92 NSCLC; 22.8 µM in the assay on RPMI-8226 leukemia; 19.7 µM in the assay on HCT-116 colon; 13.2 µM in the assay with NCI-H522 lung; 13.8 µM in the assay with NCI-H226 lung. Moreover, the GI50 in the assay with LOX IMVI melanoma was 22.4 µM; in the assay on UACC-62 melanoma it was 16.5 µM; in the assay with HL-60(TB) leukemia, 7.85 µM. For the same compound, the total growth inhibition concentration (TGI) in the assay on A498 renal was > 100 µM; in the assay with HOP-92 NSCLC, 63.8 µM; in the assay on RPMI-8226 leukemia, > 100 µM; in the assay with HCT-116 colon it was > 100 µM; in the assay with NCI-H522 lung, 43.6 µM; with NCI-H226 lung it was 60.6 µM. In addition, the TGI with LOX IMVI melanoma was > 100 µM; in the assay on UACC-62 melanoma, 48.6 µM; in the assay on HL-60(TB) leukemia, 31.8 µM.

As to `Cc1[nH]c(=O)n2c(C)nnc2c1C(=O)O`, the TGI in the assay with HOP-92 NSCLC, in the assay with RPMI-8226 leukemia, with HCT-116 colon, in the assay with NCI-H522 lung, in the assay on NCI-H226 lung and with LOX IMVI melanoma was > 100 µM each time. Besides, the TGI in the assay on UACC-62 melanoma and in the assay with HL-60(TB) leukemia was > 100 µM each time.

On to `OC1(C(Sc2ccccc2)Sc2ccccc2)CCCCCC1`, for which the TGI in the assay with A498 renal stood at 85.2 µM; with HOP-92 NSCLC, 56.5 µM; in the assay with RPMI-8226 leukemia it was 52.4 µM; in the assay with HCT-116 colon it was 72.3 µM; in the assay with NCI-H522 lung it was 40.7 µM; in the assay with LOX IMVI melanoma it was 40 µM. The TGI with UACC-62 melanoma came to 28.5 µM; with HL-60(TB) leukemia, 50.8 µM.

In the case of `CC[O-].CC[O-].O=C1C=C([O-])C(=O)c2ccccc21.O=C1C=C([O-])C(=O)c2ccccc21.[Ti+4]`, the GI50 in the assay on A498 renal is 22.5 µM; in the assay with HOP-92 NSCLC it was > 100 µM; in the assay with RPMI-8226 leukemia, 8.08 µM; in the assay on HCT-116 colon, 43.2 µM; with NCI-H522 lung, > 40.1 µM; with NCI-H226 lung, > 82.8 µM. Besides, the GI50 in the assay on LOX IMVI melanoma was 5.25 µM; in the assay on UACC-62 melanoma it was 21.5 µM; with HL-60(TB) leukemia it was 7.22 µM. The TGI with A498 renal was > 60.9 µM; in the assay on HOP-92 NSCLC, > 100 µM; with RPMI-8226 leukemia it was > 100 µM; in the assay with HCT-116 colon, > 100 µM; in the assay on NCI-H522 lung, > 100 µM; with NCI-H226 lung, > 100 µM. In addition, the TGI in the assay with LOX IMVI melanoma, in the assay with UACC-62 melanoma and with HL-60(TB) leukemia was > 100 µM each time.

Consider `C/C=C1\Oc2ccc(OC)cc2S1(=O)=O`, for which the TGI in the assay with A498 renal, with HOP-92 NSCLC, in the assay with RPMI-8226 leukemia, in the assay on HCT-116 colon, in the assay on NCI-H522 lung and in the assay with NCI-H226 lung was > 100 µM throughout. The TGI with LOX IMVI melanoma, in the assay with UACC-62 melanoma and with HL-60(TB) leukemia was > 100 µM in each case.

Consider `O=C(O)C1=Cc2cccc3cccc(c23)C1=O`, for which the TGI was 73.5 µM in the assay on A498 renal; > 100 µM in the assay on RPMI-8226 leukemia; > 100 µM with HCT-116 colon; > 100 µM in the assay on NCI-H522 lung; > 100 µM in the assay on NCI-H226 lung; > 100 µM in the assay with LOX IMVI melanoma. Also, the TGI in the assay with UACC-62 melanoma and in the assay with HL-60(TB) leukemia was > 100 µM in each case.

With `C[C@@H](NC1CCCC[C@@H]1O)c1ccccc1` (stereo not given in full), the TGI in the assay on HOP-92 NSCLC, in the assay on RPMI-8226 leukemia, in the assay with HCT-116 colon, with NCI-H226 lung, with LOX IMVI melanoma and in the assay with UACC-62 melanoma was > 100 µM throughout. Besides, the TGI in the assay with HL-60(TB) leukemia is > 100 µM.

In the case of `CCN(N=O)C1C2(CCCC2)NC(=O)C12CCCC2` (stereo not given), the TGI in the assay on A498 renal, with RPMI-8226 leukemia, in the assay on HCT-116 colon, with NCI-H226 lung, with LOX IMVI melanoma and with UACC-62 melanoma was > 100 µM in each case. The TGI with HL-60(TB) leukemia is > 100 µM.

`CCOC(=O)CCc1c(C)c2c(OC)cc(OC)cc2oc1=O`: the TGI with HOP-92 NSCLC, in the assay on HCT-116 colon, with NCI-H522 lung, in the assay with NCI-H226 lung, in the assay with LOX IMVI melanoma and in the assay with HL-60(TB) leukemia was > 100 µM each time.
